In ChEMBL document CHEMBL1201862, “PubChem BioAssay data set” (2004):
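Test compounds were applied to cells in 96-well plates for 48 hours at 5 doses. GI50 is the concentration that inhibits growth by half.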 Active and inactive are the calls of the source. No stated cut-off is given here; in the data, active = GI50 up to about 1.1 µM and inactive = higher.

What was measured:
Assay in all cases: DTP human tumour cell line panel, 48 h
[1] = system: A549
[2] = system: HL-60
[3] = system: K562
[4] = system: LOX IMVI
[5] = system: NCI-H226
[6] = system: NCI-H522
[7] = system: OVCAR-8
[8] = system: RXF 393
[9] = system: SF-268
[10] = system: SF-295
[11] = system: SF-539
[12] = system: SNB-75
[13] = system: SR
[14] = system: UACC-257
[15] = system: UACC-62
[16] = system: HCC 2998
[17] = system: OVCAR-3
[18] = system: SK-OV-3
[19] = system: TK-10
[20] = system: UO-31

SMILES	GI50 [1]	GI50 [2]	GI50 [3]	GI50 [4]	GI50 [5]	GI50 [6]	GI50 [7]	GI50 [8]	GI50 [9]	GI50 [10]	GI50 [11]	GI50 [12]	GI50 [13]	GI50 [14]	GI50 [15]	GI50 [16]	GI50 [17]	GI50 [18]	GI50 [19]	GI50 [20]
CNC(=S)N(C)C(=S)Nn1c(=O)c(C)nn(C)c1=S	> 100 µM (inactive)	> 100 µM (inactive)	> 100 µM (inactive)	> 100 µM (inactive)	> 100 µM (inactive)	> 100 µM (inactive)	> 100 µM (inactive)	> 100 µM (inactive)	> 100 µM (inactive)	> 100 µM (inactive)	> 100 µM (inactive)	> 100 µM (inactive)	> 100 µM (inactive)	> 100 µM (inactive)	> 100 µM (inactive)	–	–	–	–	–
COc1ccc2c(c1)C(=O)CC1c3cnccc3C(=O)N21 (stereo unspecified)	> 100 µM (inactive)	–	> 94.8 µM (inactive)	> 100 µM (inactive)	> 100 µM (inactive)	> 100 µM (inactive)	> 100 µM (inactive)	> 75.9 µM (inactive)	> 100 µM (inactive)	> 100 µM (inactive)	> 100 µM (inactive)	> 100 µM (inactive)	> 85.5 µM (inactive)	> 100 µM (inactive)	> 63.7 µM (inactive)	> 86.1 µM (inactive)	> 100 µM (inactive)	> 100 µM (inactive)	> 100 µM (inactive)	49.1 µM (inactive)
CC12CCCC(C#N)(C1)OC2=O (stereo unspecified)	> 100 µM (inactive)	> 100 µM (inactive)	> 100 µM (inactive)	–	> 100 µM (inactive)	> 100 µM (inactive)	> 100 µM (inactive)	> 100 µM (inactive)	> 100 µM (inactive)	> 100 µM (inactive)	> 100 µM (inactive)	> 100 µM (inactive)	> 100 µM (inactive)	> 100 µM (inactive)	> 100 µM (inactive)	–	> 100 µM (inactive)	> 100 µM (inactive)	> 100 µM (inactive)	> 100 µM (inactive)
CN1CCCC2[C@@H]3CCC4c5nonc5CC[C@]4(C)C3CC[C@@]21C (stereo partly specified)	> 100 µM (inactive)	–	67.8 µM (inactive)	–	> 100 µM (inactive)	> 100 µM (inactive)	> 100 µM (inactive)	50.1 µM (inactive)	–	43.2 µM (inactive)	> 100 µM (inactive)	23.4 µM (inactive)	> 100 µM (inactive)	35 µM (inactive)	24.7 µM (inactive)	–	–	17.9 µM (inactive)	> 100 µM (inactive)	> 100 µM (inactive)
CN1CCOC1(C)CO (stereo unspecified)	> 100 µM (inactive)	50.8 µM (inactive)	> 100 µM (inactive)	> 100 µM (inactive)	> 100 µM (inactive)	> 100 µM (inactive)	> 100 µM (inactive)	> 100 µM (inactive)	> 100 µM (inactive)	> 100 µM (inactive)	> 100 µM (inactive)	28.6 µM (inactive)	> 100 µM (inactive)	> 100 µM (inactive)	> 100 µM (inactive)	–	> 100 µM (inactive)	> 100 µM (inactive)	> 100 µM (inactive)	> 100 µM (inactive)
CCOC(=O)CC[C@H](NC(=O)N[C@H](C)c1ccccc1)C(=O)OCC	> 100 µM (inactive)	> 100 µM (inactive)	36.1 µM (inactive)	55.7 µM (inactive)	> 100 µM (inactive)	–	> 100 µM (inactive)	–	–	> 100 µM (inactive)	14.7 µM (inactive)	–	84.9 µM (inactive)	18.3 µM (inactive)	16.1 µM (inactive)	25.9 µM (inactive)	18 µM (inactive)	> 100 µM (inactive)	42.8 µM (inactive)	29.2 µM (inactive)
CCOC(=O)O/C(=C\c1ccc(OC)cc1)c1c(OC(=O)OCC)n(C(=O)OCC)c2ccccc12	34.4 µM (inactive)	> 100 µM (inactive)	2.77 µM (inactive)	42.3 µM (inactive)	32.9 µM (inactive)	–	59.2 µM (inactive)	19.8 µM (inactive)	47.1 µM (inactive)	28.4 µM (inactive)	34.8 µM (inactive)	25.1 µM (inactive)	15.3 µM (inactive)	34.5 µM (inactive)	42.7 µM (inactive)	–	59.4 µM (inactive)	41.5 µM (inactive)	31.3 µM (inactive)	29.1 µM (inactive)
NCCC1([N+](=O)[O-])C=CN=CC1 (stereo unspecified)	> 100 µM (inactive)	> 100 µM (inactive)	> 100 µM (inactive)	–	> 100 µM (inactive)	> 100 µM (inactive)	> 100 µM (inactive)	> 100 µM (inactive)	> 100 µM (inactive)	> 100 µM (inactive)	> 100 µM (inactive)	6.98 µM (inactive)	> 100 µM (inactive)	> 100 µM (inactive)	> 100 µM (inactive)	–	–	> 100 µM (inactive)	> 100 µM (inactive)	> 100 µM (inactive)
CCC1CN(C(=O)c2ccccc2)C(Cc2c[nH]c3ccccc23)C(=O)C1CC(=O)OC (stereo unspecified)	–	31.6 µM (inactive)	47.8 µM (inactive)	90.6 µM (inactive)	> 100 µM (inactive)	50.9 µM (inactive)	79.6 µM (inactive)	> 100 µM (inactive)	> 100 µM (inactive)	> 100 µM (inactive)	> 100 µM (inactive)	88.3 µM (inactive)	36.6 µM (inactive)	> 100 µM (inactive)	32.1 µM (inactive)	–	–	> 100 µM (inactive)	> 100 µM (inactive)	35.2 µM (inactive)
O=C1/C(=C/c2cccc([N+](=O)[O-])c2)N=C(c2ccccc2)N1c1nc2ccc(Sc3ccccc3)cc2[nH]1	55.2 µM (inactive)	–	30.9 µM (inactive)	38.5 µM (inactive)	> 100 µM (inactive)	32.9 µM (inactive)	45.1 µM (inactive)	74.3 µM (inactive)	39 µM (inactive)	35.7 µM (inactive)	57.4 µM (inactive)	52.4 µM (inactive)	24.8 µM (inactive)	42 µM (inactive)	36.1 µM (inactive)	67.6 µM (inactive)	–	34.4 µM (inactive)	71.4 µM (inactive)	3.45 µM (inactive)
C/C=C1/CN2CC[C@@H]3c4ccccc4N4[C@H](C(=O)OC)[C@H]1C[C@H]2[C@]34/C=C/C1=COC[C@@H]2[C@H]1C[C@H]1c3c(c4ccccc4n3C)C[C@@H]2N1C	4.16 µM (inactive)	–	6.15 µM (inactive)	4.19 µM (inactive)	4.5 µM (inactive)	–	4.11 µM (inactive)	4.19 µM (inactive)	3.61 µM (inactive)	4.45 µM (inactive)	4.15 µM (inactive)	–	6.1 µM (inactive)	4.52 µM (inactive)	4.86 µM (inactive)	0.345 µM (active)	4.33 µM (inactive)	4.57 µM (inactive)	3.86 µM (inactive)	3.99 µM (inactive)
Cc1ccc(S(=O)(=O)N(CCN)c2cc3c4c(c2)Oc2cccc5c2C4c2c(cccc2O3)O5)cc1	25.7 µM (inactive)	–	30 µM (inactive)	23.2 µM (inactive)	12.4 µM (inactive)	–	11.1 µM (inactive)	–	14.4 µM (inactive)	21.9 µM (inactive)	18.8 µM (inactive)	12.6 µM (inactive)	0.724 µM (active)	30.5 µM (inactive)	47.3 µM (inactive)	> 100 µM (inactive)	20 µM (inactive)	27 µM (inactive)	48.9 µM (inactive)	> 100 µM (inactive)
CCOC(=O)C1=C(O)C2C3CC4C2C(O)=C(C(=O)OCC)C2C1C3C42 (stereo unspecified)	> 100 µM (inactive)	24.8 µM (inactive)	> 100 µM (inactive)	98.6 µM (inactive)	> 100 µM (inactive)	> 100 µM (inactive)	> 100 µM (inactive)	> 100 µM (inactive)	> 100 µM (inactive)	> 100 µM (inactive)	> 100 µM (inactive)	> 100 µM (inactive)	45.3 µM (inactive)	> 100 µM (inactive)	> 100 µM (inactive)	–	> 100 µM (inactive)	> 100 µM (inactive)	> 100 µM (inactive)	> 100 µM (inactive)
CC1CCCCNC1=S (stereo unspecified)	> 10 µM (inactive)	> 10 µM (inactive)	> 10 µM (inactive)	> 10 µM (inactive)	> 10 µM (inactive)	–	> 10 µM (inactive)	> 10 µM (inactive)	> 10 µM (inactive)	> 10 µM (inactive)	> 10 µM (inactive)	> 10 µM (inactive)	> 10 µM (inactive)	> 10 µM (inactive)	> 10 µM (inactive)	–	> 10 µM (inactive)	> 10 µM (inactive)	> 10 µM (inactive)	> 10 µM (inactive)
C/C(=N\NC(=O)C(N)=O)c1c(O)cc(C)oc1=O	> 100 µM (inactive)	> 100 µM (inactive)	> 100 µM (inactive)	> 100 µM (inactive)	> 100 µM (inactive)	–	> 100 µM (inactive)	–	> 100 µM (inactive)	> 100 µM (inactive)	> 100 µM (inactive)	> 100 µM (inactive)	> 100 µM (inactive)	> 100 µM (inactive)	> 100 µM (inactive)	> 100 µM (inactive)	–	> 100 µM (inactive)	> 100 µM (inactive)	> 100 µM (inactive)
Cn1c(=O)c2ccccc2c2nc3ccccc3nc21	> 100 µM (inactive)	–	> 100 µM (inactive)	–	> 100 µM (inactive)	–	> 100 µM (inactive)	> 100 µM (inactive)	> 100 µM (inactive)	59.2 µM (inactive)	92.3 µM (inactive)	25.2 µM (inactive)	> 100 µM (inactive)	> 100 µM (inactive)	> 100 µM (inactive)	> 100 µM (inactive)	–	37.2 µM (inactive)	45.5 µM (inactive)	> 100 µM (inactive)
